Blank lines part the entries; values can stand above or below the compound they belong to.
Experiments:
[1] = molecular target: Myosin-IIIa (Homo sapiens) (UniProt Q8NEV4); conditions: at 10 µM
[2] = molecular target: Proto-oncogene tyrosine-protein kinase ROS (Homo sapiens) (UniProt P08922); experiment: Selectivity interaction (Ambit KINOMEscan and KiNATiv profiling in Jurkat cells) EUB0000090b ROS1; type: cell-based; conditions: at 1 µM
[3] = molecular target: Tyrosine-protein kinase Fyn (Homo sapiens) (UniProt P06241); experiment: Selectivity interaction (KinomeScan (DiscoverX)) EUB0001079a FYN; conditions: at 1 µM
[4] = molecular target: T1, Insulin receptor (Homo sapiens, UniProt P06213); experiment: Selectivity interaction (KinomeScan (DiscoverX)) EUB0000607a INSR; conditions: at 10 µM
[5] = molecular target: T1, Insulin receptor; experiment: Selectivity interaction (KinomeScan (DiscoverX)) EUB0001619a INSR; conditions: at 1 µM
[6] = molecular target: Mitogen-activated protein kinase kinase kinase kinase 4 (Homo sapiens, UniProt O95819); experiment: Selectivity interaction (KinomeScan (DiscoverX)) EUB0000045b MAP4K4
[7] = molecular target: T2, Mitogen-activated protein kinase kinase kinase 12 (Homo sapiens) (UniProt Q12852); experiment: Selectivity interaction (KinomeScan (DiscoverX)) EUB0000045b MAP3K12
T2 sequence (whole entry): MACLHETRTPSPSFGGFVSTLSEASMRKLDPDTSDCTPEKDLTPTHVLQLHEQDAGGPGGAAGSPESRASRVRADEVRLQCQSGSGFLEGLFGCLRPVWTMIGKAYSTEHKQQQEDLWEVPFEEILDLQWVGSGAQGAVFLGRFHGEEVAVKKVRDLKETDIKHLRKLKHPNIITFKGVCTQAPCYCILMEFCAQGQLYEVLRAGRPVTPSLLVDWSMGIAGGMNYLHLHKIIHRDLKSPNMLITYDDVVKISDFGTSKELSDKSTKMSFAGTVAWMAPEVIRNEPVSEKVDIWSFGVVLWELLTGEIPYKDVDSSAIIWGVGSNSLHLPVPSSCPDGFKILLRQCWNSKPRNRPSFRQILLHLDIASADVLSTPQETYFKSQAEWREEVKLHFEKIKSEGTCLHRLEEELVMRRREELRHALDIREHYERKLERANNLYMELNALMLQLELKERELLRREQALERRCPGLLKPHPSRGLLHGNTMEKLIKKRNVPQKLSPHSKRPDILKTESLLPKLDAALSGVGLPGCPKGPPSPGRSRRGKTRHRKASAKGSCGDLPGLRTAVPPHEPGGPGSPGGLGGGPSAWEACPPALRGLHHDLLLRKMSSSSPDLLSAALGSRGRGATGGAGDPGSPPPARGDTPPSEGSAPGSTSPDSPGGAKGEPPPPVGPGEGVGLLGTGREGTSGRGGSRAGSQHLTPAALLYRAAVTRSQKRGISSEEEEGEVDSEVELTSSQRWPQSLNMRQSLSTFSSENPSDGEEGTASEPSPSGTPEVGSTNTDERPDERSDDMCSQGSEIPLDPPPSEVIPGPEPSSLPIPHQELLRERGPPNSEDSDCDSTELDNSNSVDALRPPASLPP

[8] = molecular target: Calcium/calmodulin-dependent protein kinase type II subunit beta (Homo sapiens) (UniProt Q13554); experiment: Selectivity interaction (KinomeScan (DiscoverX)) EUB0000595a CAMK2B; conditions: at 10 µM
[9] = molecular target: Casein kinase II subunit alpha (Homo sapiens, UniProt P68400); experiment: Selectivity interaction (Upstate Kinase Profiler service (Millipore)) EUB0000056c CSNK2A1; conditions: at 1 µM
[10] = molecular target: T3, Calcium/calmodulin-dependent protein kinase type IV (Homo sapiens) (UniProt Q16566); experiment: Selectivity interaction (Kinase panel (KiNativ target engagement assay in Jurkat cells)) EUB0001635a CAMK4; type: cell-based; conditions: Selectivity number of off-targets 0.0, Selectivity number of targets 233.0, Source Knowledge https://www.sciencedirect.com/science/article/pii/S2451945619300674?via%3Dihub, at 1 µM
T3 sequence (whole entry): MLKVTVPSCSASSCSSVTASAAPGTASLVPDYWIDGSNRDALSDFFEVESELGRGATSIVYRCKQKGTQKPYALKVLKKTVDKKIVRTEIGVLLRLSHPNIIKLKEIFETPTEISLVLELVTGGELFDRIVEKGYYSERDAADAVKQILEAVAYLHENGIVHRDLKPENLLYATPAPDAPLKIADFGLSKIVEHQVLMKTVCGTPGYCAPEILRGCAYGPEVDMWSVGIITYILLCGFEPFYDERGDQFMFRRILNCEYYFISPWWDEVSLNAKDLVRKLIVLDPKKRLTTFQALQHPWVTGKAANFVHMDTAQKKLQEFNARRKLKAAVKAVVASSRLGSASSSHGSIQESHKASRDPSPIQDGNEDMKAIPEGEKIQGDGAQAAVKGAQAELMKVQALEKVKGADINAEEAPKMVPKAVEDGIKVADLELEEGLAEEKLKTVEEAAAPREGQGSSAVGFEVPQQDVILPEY

[11] = molecular target: Protein arginine N-methyltransferase 3 (Homo sapiens, UniProt O60678); experiment: Selectivity interaction (Transferase panel (protein, RNA, and DNA methyltransferases. and EP300 (acetyltransferase))) EUB0000270b PRMT3
[12] = Selectivity interaction (KinomeScan (DiscoverX)) EUB0001049a CDK2H; conditions: at 1 µM
[13] = molecular target: T4, Calcium/calmodulin-dependent protein kinase type II subunit alpha (Homo sapiens, UniProt Q9UQM7); experiment: Selectivity interaction (KinomeScan (DiscoverX)) EUB0000666a CAMK2A; conditions: at 10 µM
[14] = molecular target: Phosphatidylinositol 4-phosphate 5-kinase type-1 gamma (Homo sapiens) (UniProt O60331); experiment: Selectivity interaction (KinomeScan (DiscoverX)) EUB0000092b PIP5K1C; conditions: at 10 µM
[15] = molecular target: Focal adhesion kinase 1 (Homo sapiens, UniProt Q05397); experiment: Selectivity interaction (KinomeScan (DiscoverX)) EUB0000092b PTK2; conditions: at 10 µM
[16] = molecular target: T4, Calcium/calmodulin-dependent protein kinase type II subunit alpha; experiment: Selectivity interaction (Kinase panel (Z-LYTE Assay)) EUB0001632a CAMK2A; conditions: at 10 µM

T4 sequence (Q9UQM7 whole entry): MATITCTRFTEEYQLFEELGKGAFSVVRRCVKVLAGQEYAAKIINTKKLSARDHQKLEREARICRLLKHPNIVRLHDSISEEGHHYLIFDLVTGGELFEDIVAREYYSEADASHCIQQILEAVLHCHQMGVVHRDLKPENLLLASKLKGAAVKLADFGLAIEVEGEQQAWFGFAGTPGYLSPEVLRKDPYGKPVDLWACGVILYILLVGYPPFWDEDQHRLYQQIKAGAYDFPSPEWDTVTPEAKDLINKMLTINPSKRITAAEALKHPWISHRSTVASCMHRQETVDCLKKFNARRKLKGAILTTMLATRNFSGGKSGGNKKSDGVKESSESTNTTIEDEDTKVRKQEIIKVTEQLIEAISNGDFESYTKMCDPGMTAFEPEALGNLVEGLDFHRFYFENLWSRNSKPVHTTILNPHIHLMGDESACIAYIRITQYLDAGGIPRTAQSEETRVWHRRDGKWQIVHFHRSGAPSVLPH
Sequence of Protein arginine N-methyltransferase 3 (O60678 2-531 limits assumed): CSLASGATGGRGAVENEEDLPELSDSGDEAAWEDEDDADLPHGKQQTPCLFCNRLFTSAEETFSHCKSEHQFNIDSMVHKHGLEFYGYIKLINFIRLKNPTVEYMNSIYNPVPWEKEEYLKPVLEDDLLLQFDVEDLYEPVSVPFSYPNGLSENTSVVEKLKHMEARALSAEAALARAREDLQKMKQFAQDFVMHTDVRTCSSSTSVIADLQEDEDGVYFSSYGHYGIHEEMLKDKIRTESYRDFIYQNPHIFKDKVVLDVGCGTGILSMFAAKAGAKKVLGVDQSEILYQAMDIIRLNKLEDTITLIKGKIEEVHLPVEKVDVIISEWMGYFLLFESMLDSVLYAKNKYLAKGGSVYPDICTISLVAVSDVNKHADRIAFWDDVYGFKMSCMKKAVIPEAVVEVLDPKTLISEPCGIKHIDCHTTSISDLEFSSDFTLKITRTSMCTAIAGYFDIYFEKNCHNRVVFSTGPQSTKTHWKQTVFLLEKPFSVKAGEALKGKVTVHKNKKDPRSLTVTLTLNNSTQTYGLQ
T1 sequence (P06213 28-758 limits assumed): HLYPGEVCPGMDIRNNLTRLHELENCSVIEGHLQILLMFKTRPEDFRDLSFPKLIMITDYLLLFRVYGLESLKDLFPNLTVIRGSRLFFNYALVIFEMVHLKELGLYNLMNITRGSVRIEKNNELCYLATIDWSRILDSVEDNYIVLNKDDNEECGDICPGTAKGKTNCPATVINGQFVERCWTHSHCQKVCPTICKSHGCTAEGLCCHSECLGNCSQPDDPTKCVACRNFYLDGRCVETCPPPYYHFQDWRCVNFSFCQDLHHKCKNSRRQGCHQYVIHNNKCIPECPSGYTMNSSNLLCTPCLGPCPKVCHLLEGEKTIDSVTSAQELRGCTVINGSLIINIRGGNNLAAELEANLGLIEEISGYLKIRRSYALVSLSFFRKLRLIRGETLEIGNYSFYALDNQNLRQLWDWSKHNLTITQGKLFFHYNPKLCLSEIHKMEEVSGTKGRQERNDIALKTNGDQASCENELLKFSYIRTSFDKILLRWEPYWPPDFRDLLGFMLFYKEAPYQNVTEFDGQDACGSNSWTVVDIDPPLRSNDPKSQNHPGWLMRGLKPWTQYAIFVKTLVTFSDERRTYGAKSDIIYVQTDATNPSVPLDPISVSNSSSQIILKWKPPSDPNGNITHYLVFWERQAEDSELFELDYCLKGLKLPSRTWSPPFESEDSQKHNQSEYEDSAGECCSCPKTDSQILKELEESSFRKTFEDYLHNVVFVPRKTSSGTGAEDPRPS
T1 sequence (P06213 763-1382 limits assumed): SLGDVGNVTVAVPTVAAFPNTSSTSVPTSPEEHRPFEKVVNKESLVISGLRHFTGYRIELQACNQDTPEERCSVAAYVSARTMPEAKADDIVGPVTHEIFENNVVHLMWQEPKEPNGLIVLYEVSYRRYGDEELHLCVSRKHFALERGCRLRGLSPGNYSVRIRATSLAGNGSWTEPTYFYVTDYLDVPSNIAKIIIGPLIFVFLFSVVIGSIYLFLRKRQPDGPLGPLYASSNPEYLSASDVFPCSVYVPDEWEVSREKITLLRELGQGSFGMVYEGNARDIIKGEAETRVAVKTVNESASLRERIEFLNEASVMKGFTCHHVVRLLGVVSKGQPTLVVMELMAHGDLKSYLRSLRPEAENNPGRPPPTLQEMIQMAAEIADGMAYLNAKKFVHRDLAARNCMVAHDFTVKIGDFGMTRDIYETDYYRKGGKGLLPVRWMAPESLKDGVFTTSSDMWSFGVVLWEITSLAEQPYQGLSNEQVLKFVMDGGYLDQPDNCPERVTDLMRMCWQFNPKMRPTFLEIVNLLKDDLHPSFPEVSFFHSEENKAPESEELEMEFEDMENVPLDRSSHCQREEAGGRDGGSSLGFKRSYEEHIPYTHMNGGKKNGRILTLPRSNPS
Sequence of Mitogen-activated protein kinase kinase kinase kinase 4 (O95819 2-1239 limits assumed): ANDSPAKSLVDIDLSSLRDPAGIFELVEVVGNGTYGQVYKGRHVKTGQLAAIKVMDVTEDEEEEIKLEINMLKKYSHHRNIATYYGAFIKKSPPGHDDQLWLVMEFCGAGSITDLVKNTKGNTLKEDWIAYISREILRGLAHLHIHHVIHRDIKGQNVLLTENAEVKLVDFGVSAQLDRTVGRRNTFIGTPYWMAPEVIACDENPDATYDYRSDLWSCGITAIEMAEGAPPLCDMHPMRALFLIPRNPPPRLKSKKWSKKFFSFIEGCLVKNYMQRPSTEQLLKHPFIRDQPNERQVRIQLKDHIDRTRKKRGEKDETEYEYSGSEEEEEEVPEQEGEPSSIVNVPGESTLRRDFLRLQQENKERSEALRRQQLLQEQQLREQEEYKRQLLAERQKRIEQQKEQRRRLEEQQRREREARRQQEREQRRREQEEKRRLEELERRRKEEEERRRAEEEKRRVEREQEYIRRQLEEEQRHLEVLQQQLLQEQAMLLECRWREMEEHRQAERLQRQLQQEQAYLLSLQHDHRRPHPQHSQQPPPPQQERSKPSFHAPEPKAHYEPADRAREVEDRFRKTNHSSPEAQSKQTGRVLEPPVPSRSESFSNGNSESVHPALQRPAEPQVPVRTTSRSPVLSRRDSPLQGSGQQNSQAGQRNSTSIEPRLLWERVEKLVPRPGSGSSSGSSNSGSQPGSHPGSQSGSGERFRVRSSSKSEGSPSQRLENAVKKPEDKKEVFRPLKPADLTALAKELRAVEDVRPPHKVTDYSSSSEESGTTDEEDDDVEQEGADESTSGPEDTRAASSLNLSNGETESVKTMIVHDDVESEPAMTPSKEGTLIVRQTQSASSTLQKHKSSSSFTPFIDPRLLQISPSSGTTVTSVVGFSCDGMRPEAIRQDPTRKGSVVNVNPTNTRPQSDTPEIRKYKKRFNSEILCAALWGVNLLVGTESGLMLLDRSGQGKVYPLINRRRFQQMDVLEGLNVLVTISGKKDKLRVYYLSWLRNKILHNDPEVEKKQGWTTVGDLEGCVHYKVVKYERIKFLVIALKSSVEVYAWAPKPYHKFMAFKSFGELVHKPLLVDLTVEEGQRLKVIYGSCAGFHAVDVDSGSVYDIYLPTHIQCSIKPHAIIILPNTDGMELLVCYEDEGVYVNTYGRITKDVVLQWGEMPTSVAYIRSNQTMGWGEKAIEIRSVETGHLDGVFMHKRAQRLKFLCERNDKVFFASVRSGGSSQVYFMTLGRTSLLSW
Sequence of Casein kinase II subunit alpha (P68400 whole entry, looked up): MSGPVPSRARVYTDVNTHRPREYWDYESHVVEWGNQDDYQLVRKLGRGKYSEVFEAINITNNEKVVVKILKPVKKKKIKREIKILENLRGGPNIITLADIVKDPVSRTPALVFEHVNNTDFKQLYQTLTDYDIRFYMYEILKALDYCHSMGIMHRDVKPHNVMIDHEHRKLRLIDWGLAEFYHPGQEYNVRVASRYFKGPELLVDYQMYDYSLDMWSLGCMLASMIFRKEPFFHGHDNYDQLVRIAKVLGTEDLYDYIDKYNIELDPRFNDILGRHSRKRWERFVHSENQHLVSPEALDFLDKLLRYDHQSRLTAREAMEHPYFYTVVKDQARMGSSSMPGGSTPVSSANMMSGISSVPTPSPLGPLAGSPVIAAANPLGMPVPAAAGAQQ
Sequence of Phosphatidylinositol 4-phosphate 5-kinase type-1 gamma (Homo sapiens) (O60331 whole entry): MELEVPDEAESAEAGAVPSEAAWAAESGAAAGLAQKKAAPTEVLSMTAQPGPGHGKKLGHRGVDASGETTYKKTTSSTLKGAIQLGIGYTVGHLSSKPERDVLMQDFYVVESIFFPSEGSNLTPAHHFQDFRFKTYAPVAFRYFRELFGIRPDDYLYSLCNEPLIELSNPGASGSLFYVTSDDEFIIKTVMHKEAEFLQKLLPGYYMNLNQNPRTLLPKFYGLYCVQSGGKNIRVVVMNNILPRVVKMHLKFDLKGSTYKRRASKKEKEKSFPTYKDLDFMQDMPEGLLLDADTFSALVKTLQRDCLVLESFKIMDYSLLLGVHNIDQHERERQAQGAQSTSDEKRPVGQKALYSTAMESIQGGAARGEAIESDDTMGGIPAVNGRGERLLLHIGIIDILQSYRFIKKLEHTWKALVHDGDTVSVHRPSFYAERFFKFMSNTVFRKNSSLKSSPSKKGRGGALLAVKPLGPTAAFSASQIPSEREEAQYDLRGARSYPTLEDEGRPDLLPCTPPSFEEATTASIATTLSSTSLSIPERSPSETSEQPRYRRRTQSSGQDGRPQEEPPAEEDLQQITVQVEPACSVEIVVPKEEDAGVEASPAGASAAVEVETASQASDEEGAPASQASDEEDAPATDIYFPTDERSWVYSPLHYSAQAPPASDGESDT

% of control [1]: 100%
SMILES: CCN(CC)CCCCNc1ncc2cc(-c3cc(OC)cc(OC)c3)c(NC(=O)NC(C)(C)C)nc2n1

SMILES: CN(C)C/C=C/C(=O)Nc1ccc(C(=O)N2CCCC(Nc3ncc(Cl)c(-c4c[nH]c5ccccc45)n3)C2)cc1 (centres undefined)
% of control [2]: 85%

SMILES: Nc1cnc(N2CCc3cc(S(=O)(=O)Nc4c(F)cc(Cl)cc4F)cc(N4CCCC4=O)c32)nc1 [TP-020n]
% of control [3]: 58%

SMILES: CNC(=O)Nc1ccc(-c2nc(N3CC4CCC(C3)O4)c3cnn(C4CCC5(CC4)OCCO5)c3n2)cc1
% of control [4]: 84%

SMILES: N#Cc1cccc(-c2c[nH]c3ncnc(N4CCOCC4)c23)c1
% of control [5]: 100%

SMILES: C=CC(=O)Nc1cc(-n2c(=O)ccc3cnc4ccc(-c5ccc(NS(C)(=O)=O)cc5)cc4c32)ccc1C
% of control ([6]; at 1 µM): 100%
% of control ([6]; at 10 µM): 100%
% of control ([7]; at 1 µM): 70%
% of control ([7]; at 10 µM): 59%

SMILES: COCC(=O)NC/C=C/c1ccc2ncnc(Nc3ccc(Oc4ccc(C)nc4)c(C)c3)c2c1 [CP-724714]
% of control [8]: 88%

% of inhibition [9]: 15%
SMILES: Cc1ccc(-c2ccc3c(ccc4sc5c(c43)NC[C@@H](C)NC5=O)n2)cn1

SMILES: C=CC(=O)Nc1ccc(C(=O)Nc2[nH]nc3c2CN(C(=O)N[C@H](CN(C)C)c2ccccc2)C3(C)C)cc1
% of engagement [10]: 4.5%

% activity ([11]; at 1 µM): > 90%
% activity ([11]; at 10 µM): > 80%
SMILES: Cc1cc(CN)cc(C)c1-c1ncn(C)c1-c1cncn1C

SMILES: COc1cc(Nc2nc(C)cc(-c3cnn4nc(OC)ccc34)n2)cc(C(F)(F)F)c1
% of control [12]: 100%

SMILES: O=C(NOC[C@H](O)CO)c1ccc(F)c(F)c1Nc1ccc(I)cc1F
% of control [13]: 100%

SMILES: CCC(=O)N1CCN(c2ccc(-n3c(=O)ccc4cnc5ccc(-c6cnc7ccccc7c6)cc5c43)cc2C(F)(F)F)CC1
% of control [14]: 80%
% of control [15]: 14%

% of control [16]: -0.947%
SMILES: Cn1cc(-n2cnc3c(NCc4nc5cc(Cl)c(Cl)cc5[nH]4)nc(N4CCOCC4)nc32)cn1

— ChEMBL document CHEMBL5465560, “Selectivity Literature for EUbOPEN Chemogenomic Library” (2024)
